Measured values taken from ChEMBL document CHEMBL1152627, “Structure-activity relationship of antiparasitic and cytotoxic indoloquinoline alkaloids, and their tricyclic and bicyclic analogues” (Bioorg Med Chem, 2009).
pIC50: −log10 of the molar value. Counter-ions that a name gives are not always drawn. Activity calls are given as the source filed them. The rule behind the calls is not given here.

Tests used:
[1] = test system: Trypanosoma brucei rhodesiense; experiment: Antitrypanosomal activity against Trypanosoma brucei rhodesiense; format: functional, organism-based
[2] = test system: Trypanosoma cruzi; experiment: Antitrypanosomal activity against Trypanosoma cruzi; format: functional, organism-based
[3] = test system: Leishmania donovani; experiment: Antileishmanial activity against Leishmania donovani axenic amastigotes; format: functional, organism-based
[4] = test system: Plasmodium falciparum; experiment: Antimalarial activity against chloroquine and pyrimethamine-resistant Plasmodium falciparum K1 by [3H]hypoxanthine incorporation assay; format: functional, organism-based
[5] = (§1) Toxicity against rat L6 cells; format: cell-based; conditions: rat, L6 cells
[6] = test system: L6; experiment: as §1; format: cell-based; conditions: l6
[7] = Selectivity index, ratio of IC50 for mice (Mus musculus) FM3A cells to IC50 for chloroquine-sensitive Plasmodium falciparum FCR3/Gambia; format: toxicity, cell-based; conditions: read-out: Ratio IC50
[8] = test system: Plasmodium falciparum; experiment: Antimalarial activity against chloroquine and pyrimethamine-resistant Plasmodium falciparum K1; format: functional, organism-based
[9] = Inhibition of beta-hematin formation by BHIA assay; format: functional
[10] = test system: Nucleic Acid; experiment: Displacement of methyl green dye from DNA; format: nucleic-acid assay
[11] = test system: Plasmodium falciparum; experiment: Antimalarial activity against chloroquine-resistant Plasmodium falciparum W2; format: functional, organism-based
[12] = test system: THP-1; experiment: Cytotoxicity in human THP1 cells; format: cell-based
[13] = test system: Plasmodium falciparum; experiment: Antimalarial activity against chloroquine-sensitive Plasmodium falciparum D6; format: functional, organism-based
[14] = test system: Plasmodium falciparum; experiment: Antimalarial activity against chloroquine-sensitive Plasmodium falciparum FCR3/Gambia; format: functional; conditions: FCR-3/Gambia
[15] = test system: FM3A; experiment: Cytotoxicity in mouse FM3A cells; format: cell-based
[16] = test system: Plasmodium falciparum; experiment: Antimalarial activity against Plasmodium falciparum isolates; format: functional, organism-based
[17] = test system: Plasmodium berghei; experiment: Antimalarial activity against Plasmodium berghei ANKA infected in Swiss mice (Mus musculus) assessed as parasitaemia level at 10 mg/kg, intraperitoneally dosed for 5 consecutive days measured 4 days post infection; conditions: route intraperitoneal
[18] = test system: Plasmodium berghei; experiment: Antimalarial activity against Plasmodium berghei ANKA infected in Swiss mice (Mus musculus) assessed as mice (Mus musculus) survival at 10 mg/kg, intraperitoneally dosed for 5 consecutive days measured 7 days post infection; conditions: ip, 168 h
[19] = test system: Plasmodium berghei; experiment: Antimalarial activity against Plasmodium berghei ANKA infected in Swiss mice (Mus musculus) assessed as suppression of parasitaemia at 10 mg/kg, intraperitoneally dosed for 5 consecutive days measured 4 days post infection relative to untreated control; conditions: route intraperitoneal

Row | Structure (SMILES) | pIC50 ([1]; Trypanosoma brucei) | pIC50 ([2]; Trypanosoma cruzi) | pIC50 ([3]; Leishmania donovani) | pIC50 ([4]; Plasmodium falciparum, K1) | pIC50 [5] | other results
1 | Cn1cc2ccccc2c2ccnc1-2 | 5.08 | 4.39 | 4.01 | 5.11 | 3.82 | –
2 | Cn1ccc2nc3ccccc3c-2c1 [listing 1 of 2 here] | – | < 3.80 | < 3.80 | 5.68 | 3.41 | pIC50 [1]: 3.86
3 | Cn1ccc2nc3ccccc3c-2c1 [listing 2 of 2 here] | 3.96 | – | – | – | – | pIC50 [2]: < 4.02; pIC50 [3]: < 4.02; pIC50 [4]: 5.62; pIC50 [6]: < 3.54
4 | c1ccc2c(c1)ncc1[nH]ccc12 | 4.59 | 4.09 | 3.74 | 5.19 | 3.76 | –
5 | Cn1cccc2c3ccccc3nc1-2 [listing 1 of 2 here] | – | 4.19 | – | 4.89 | 3.63 | pIC50 [1]: 4.47; pIC50 [3]: < 4.02
6 | Cc1c2[nH]c3ccccc3c2cc[n+]1C | – | – | – | – | – | selectivity ratio [7]: 18; pIC50 [8]: 5.29
7 | C[n+]1c2ccccc2cc2[n-]c3ccccc3c21 [CRYPTOLEPINE HYDROCHLORIDE] | 6.22 | 6.66 | 5.57 | 6.92 | – | inhibition [9]: Active; inhibition [10]: Active
8 | CC1NCCc2c1[nH]c1ccccc21 (stereo not drawn) [TETRAHYDROHARMAN] | – | – | – | – | – | pIC50 [11]: 5.12; pIC50 [12]: 3.39; pIC50 [13]: 4.70
9 | Cn1cc2c3ccccc3nc-2c2ccccc21 [ISOCRYPTOLEPINE HYDROCHLORIDE] | 6.28 | 5.90 | 4.41 | 6.11 | – | inhibition [9]: Active; inhibition [10]: Active
10 | Nc1nc(N)nc(Nc2ccc([As]3SCC(CO)S3)cc2)n1 (stereo not drawn) [MELARSOPROL] | – | – | – | – | 5.07 | –
11 | C[n+]1ccc2c(c1)[nH]c1ccccc12 [listing 1 of 2 here] | – | – | – | – | – | inhibition [9]: inactive
12 | c1ccc2c(c1)cnc1[nH]ccc12 | 4.36 | 4.16 | 4.52 | 4.63 | 3.93 | –
13 | C[n+]1ccc2c(c1)[nH]c1ccccc12 [NORMELINONINE F HYDROCHLORIDE] | – | – | – | – | – | pIC50 [8]: 4.87
14 | CCc1c2[nH]c3ccccc3c2c(OC)c[n+]1C | – | – | – | – | – | pIC50 [14]: > 6.00; pIC50 [15]: < 5.00; selectivity ratio [7]: > 32
15 | COc1ccc2c3cc[n+](C)c(C)c3n(C)c2c1 | – | – | – | – | – | pIC50 [14]: > 6.00; pIC50 [15]: < 5.00; selectivity ratio [7]: > 32
16 | Cc1nccc2c1[nH]c1ccccc12 [HARMAN] | – | – | – | – | – | pIC50 [11]: 5.15; pIC50 [12]: 3.92; pIC50 [13]: 4.92
17 | Cn1cccc2nc3ccccc3c1-2 [listing 1 of 2 here] | 4.06 | – | – | 6.42 | 3.88 | pIC50 [2]: < 4.02; pIC50 [3]: < 4.02
18 | O=C(Cn1ccnc1[N+](=O)[O-])NCc1ccccc1 [BENZNIDAZOLE] | – | 5.90 | – | – | < 4.05 | –

Row | Structure (SMILES) | pIC50 ([1]; Trypanosoma brucei) | pIC50 ([2]; Trypanosoma cruzi) | pIC50 ([3]; Leishmania donovani) | pIC50 ([4]; Plasmodium falciparum, K1) | pIC50 [5] | other results
19 | C[n+]1ccc2c(c1)[nH]c1ccccc12 [listing 2 of 2 here] | 3.81 | < 4.02 | 4.28 | 6.47 | < 3.54 | pIC50 [10]: < 2.55
20 | Cn1cc2ccccc2c2c3ccccc3nc1-2 | – | – | 5.32 | 7.40 | – | pIC50 [1]: 5.48; pIC50 [2]: 4.68; pIC50 [6]: 5.89; IC50 [9]: 2.76 molar equivalents; pIC50 [10]: 4.09
21 | Cn1cc2ccccc2c2c3ccccc3nc1-2.I | 5.59 | 4.92 | – | – | 5.82 | pIC50 [3]: 5.18; pIC50 [4]: 7.49; IC50 [9]: 3.32 molar equivalents; pIC50 [10]: 4.06
22 | COc1c[n+](C)c(C)c2[nH]c3ccccc3c12 | – | – | – | – | – | pIC50 [14]: > 6.00; pIC50 [15]: < 5.00; selectivity ratio [7]: > 32
23 | Cn1cc2ccccc2c2nc3ccccc3c1-2 [listing 1 of 2 here] | – | – | 4.81 | 6.19 | 5.83 | pIC50 [1]: 6.14; pIC50 [2]: 5.78
24 | C=Cc1ncc(OC)c2c1[nH]c1ccc(O)cc12 | – | – | – | – | – | pIC50 [16]: 4.86
25 | Cn1cc2ccccc2c2nc3ccccc3c1-2 [listing 2 of 2 here] | 6.26 | 5.82 | – | – | – | pIC50 [3]: 4.77; pIC50 [4]: 6.24; pIC50 [6]: 5.66
26 | Cn1ccc2c3ccccc3nc-2c1 | 4.03 | < 3.80 | 4.04 | 6.35 | < 3.31 | inhibition [9]: inactive; pIC50 [10]: < 2.42
27 | Cn1cc2nccc-2c2ccccc21 | 4.50 | 4.11 | 3.77 | 5.49 | 3.80 | –
28 | C=Cc1c2[nH]c3ccccc3c2c(OC)c[n+]1CC | – | – | – | – | – | pIC50 [14]: > 6.00; pIC50 [15]: < 5.00; selectivity ratio [7]: > 32
29 | Cn1cccc2nc3ccccc3c1-2 [listing 2 of 2 here] | – | < 3.80 | < 3.80 | – | – | pIC50 [1]: 3.86; pIC50 [4]: 6.32; pIC50 [6]: 3.75
30 | Cn1cccc2c3ccccc3nc1-2 [listing 2 of 2 here] | 4.67 | – | < 3.80 | – | – | pIC50 [2]: 4.05; pIC50 [4]: 4.83; pIC50 [6]: 3.52
31 | CCN(CC)CCCC(C)Nc1ccnc2cc(Cl)ccc12 (stereo not drawn) [CHLOROQUINE] | – | – | – | – | 4.37 | Activity [17]: 5.24%; survival at 10 mg/kg [18]: 100%; Activity [19]: 86.3%
32 | C=Cc1ncc(OC)c2c1[nH]c1ccccc12 | – | – | – | – | – | pIC50 [16]: 4.97
33 | CCCCCCCCCCCCCCCCOP(=O)([O-])OCC[N+](C)(C)C [MILTEFOSINE] | – | – | – | – | 4.23 | –
34 | Cn1c2nc3ccccc3c-2cc2ccccc21 [NEOCRYPTOLEPINE HYDROCHLORIDE] | 5.65 | 5.70 | 4.31 | 5.58 | – | inhibition [9]: Active; inhibition [10]: Active
35 | C[n+]1cc2[nH]c3ccccc3c2c2ccccc21 [ISONEOCRYPTOLEPINE HYDROCHLORIDE] | 5.19 | 4.68 | 4.12 | 6.64 | – | inhibition [9]: Active; inhibition [10]: Active
